The values that follow come from US20230015823A1, “METHODS OF ADMINISTERING VOXELOTOR” (Global Blood Therapeutics, Inc., priority 2019, published 2023).

In the series the target is CYP3A4 (Homo sapiens, UniProt P08684). The series can be described thus: Effect of voxelotor on PK of CYP3A4 probe substrate midazolam in healthy subjects. Particulars: healthy subjects. The protocol: During Period 1, subjects received a single dose of caffeine 100 mg, warfarin sodium 10 mg+vitamin K 10 mg, omeprazole 20 mg, and midazolam hydrochloride 2 mg on Day 1. During Period 2, subjects received voxelotor 900 mg QD on Days 1 and 2 followed by 600 mg QD on Day 3, a single dose of caffeine 100 mg, warfarin sodium 10 mg+vitamin K 10 mg, omeprazole 20 mg, and midazolam hydrochloride 2 mg on Day 4, and voxelotor 600 mg QD on Days 4 through 7.
CYP3A4, sequence (P08684 whole entry): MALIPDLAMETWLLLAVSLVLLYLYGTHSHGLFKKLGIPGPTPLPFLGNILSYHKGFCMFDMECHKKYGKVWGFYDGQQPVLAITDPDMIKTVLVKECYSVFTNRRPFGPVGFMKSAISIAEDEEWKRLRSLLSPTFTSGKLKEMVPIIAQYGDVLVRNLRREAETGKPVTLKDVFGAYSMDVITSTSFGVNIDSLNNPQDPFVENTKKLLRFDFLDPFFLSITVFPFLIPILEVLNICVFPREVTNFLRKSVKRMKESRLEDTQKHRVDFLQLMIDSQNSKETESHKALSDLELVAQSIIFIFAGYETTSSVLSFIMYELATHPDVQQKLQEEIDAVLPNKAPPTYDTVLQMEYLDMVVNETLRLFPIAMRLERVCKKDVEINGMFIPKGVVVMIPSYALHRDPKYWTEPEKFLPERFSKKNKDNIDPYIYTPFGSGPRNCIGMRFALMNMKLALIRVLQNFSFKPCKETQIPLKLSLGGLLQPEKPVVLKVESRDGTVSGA
Whole blood and plasma concentrations of voxelotor and plasma concentrations of caffeine, paraxanthine, S-warfarin, omeprazole, 5-hydroxyomeprazole, midazolam, and 1-hydroxymidazolam were determined using validated assays.

As for `Cc1ncc2n1-c1ccc(Cl)cc1C(c1ccccc1F)=NC2` [midazolam], for the setting “CYP3A4 substrate midazolam”, the “observed exposure increase with voxelotor” value was determined as 1.6 fold. Also, under “midazolam hydrochloride 2 mg single dose, voxelotor 900/600 mg QD”, the “increase of overall exposure in the presence of voxelotor” value was determined as 63%.

For `OCc1ncc2n1-c1ccc(Cl)cc1C(c1ccccc1F)=NC2` [1′-hydroxy-midazolam], where the note is “midazolam metabolite, voxelotor 900/600 mg QD”, the “increase of overall exposure of metabolite in the presence of voxelotor” value worked out at 75%.
